Reference: the supplement of paper PMC8612539
Values after ≈ are worked out from the molar mass of the structure shown.

Test system: Escherichia coli
Assay: minimum inhibitory concentration (MIC)
Method: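 Broth microdilution MIC (Sensititre BOPO7F bovine plate, CLSI methods) of 19 antimicrobials against field isolates of P. multocida, M. haemolytica, H. somni (deep nasopharyngeal swabs) and E. coli, Enterococcus spp. (rectal swabs) from weaned dairy heifers. Incubation 16-24 h at 35 C. MIC is the lowest concentration preventing visible growth. Values with <= or > lie at the tested range limits. Trimethoprim-sulfamethoxazole is given as the trimethoprim component of a 1:19 mixture.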

CNC(C)C1CCC(N)C(OC2C(N)CC(N)C(OC3OCC(C)(O)C(NC)C3O)C2O)O1 (stereo not given) [Gentamicin]
Conditions	minimum inhibitory concentration [µg/mL]
isolate (source animal id): 8	≤ 1
isolate (source animal id): 9	≤ 1
isolate (source animal id): 10	≤ 1
isolate (source animal id): 11	≤ 1
isolate (source animal id): 12	≤ 1
isolate (source animal id): 13	≤ 1
isolate (source animal id): 14	≤ 1
isolate (source animal id): 15	≤ 1
isolate (source animal id): 16	≤ 1
isolate (source animal id): 98	≤ 1
isolate (source animal id): 99	≤ 1
isolate (source animal id): 100	≤ 1
isolate (source animal id): 101	≤ 1
isolate (source animal id): 102	≤ 1
isolate (source animal id): 103	≤ 1
isolate (source animal id): 104	≤ 1
isolate (source animal id): 105	≤ 1
isolate (source animal id): 106	≤ 1
isolate (source animal id): 107	≤ 1
isolate (source animal id): 108	≤ 1
isolate (source animal id): 109	≤ 1
isolate (source animal id): 110	≤ 1
isolate (source animal id): 111	≤ 1
isolate (source animal id): 112	≤ 1
isolate (source animal id): 113	≤ 1
isolate (source animal id): 114	≤ 1
isolate (source animal id): 115	≤ 1
isolate (source animal id): 116	≤ 1
isolate (source animal id): 117	≤ 1
isolate (source animal id): 118	≤ 1
isolate (source animal id): 119	≤ 1
isolate (source animal id): 120	≤ 1
isolate (source animal id): 121	≤ 1
isolate (source animal id): 122	8 (≈ 16.8 µM)
isolate (source animal id): 123	≤ 1
isolate (source animal id): 124	2 (≈ 4.19 µM)
isolate (source animal id): 125	≤ 1
isolate (source animal id): 126	≤ 1
isolate (source animal id): 127	≤ 1
isolate (source animal id): 128	≤ 1
isolate (source animal id): 129	≤ 1
isolate (source animal id): 130	≤ 1
isolate (source animal id): 131	≤ 1
isolate (source animal id): 132	≤ 1
isolate (source animal id): 133	≤ 1
isolate (source animal id): 134	≤ 1
isolate (source animal id): 135	≤ 1
isolate (source animal id): 136	≤ 1
isolate (source animal id): 137	≤ 1
isolate (source animal id): 138	≤ 1
isolate (source animal id): 139	≤ 1
isolate (source animal id): 140	≤ 1
isolate (source animal id): 141	≤ 1
isolate (source animal id): 142	≤ 1
isolate (source animal id): 143	≤ 1
isolate (source animal id): 144	≤ 1
isolate (source animal id): 145	≤ 1
isolate (source animal id): 146	≤ 1
isolate (source animal id): 147	≤ 1
isolate (source animal id): 148	≤ 1
isolate (source animal id): 149	≤ 1
isolate (source animal id): 150	≤ 1
isolate (source animal id): 151	≤ 1
isolate (source animal id): 152	≤ 1
isolate (source animal id): 153	≤ 1
isolate (source animal id): 154	≤ 1
isolate (source animal id): 155	≤ 1
isolate (source animal id): 156	≤ 1
isolate (source animal id): 157	≤ 1
isolate (source animal id): 158	≤ 1
isolate (source animal id): 159	≤ 1
isolate (source animal id): 160	≤ 1
isolate (source animal id): 161	≤ 1
isolate (source animal id): 162	≤ 1
isolate (source animal id): 163	≤ 1
isolate (source animal id): 164	≤ 1
isolate (source animal id): 165	≤ 1
isolate (source animal id): 166	≤ 1
isolate (source animal id): 167	≤ 1
isolate (source animal id): 168	≤ 1
isolate (source animal id): 169	≤ 1
isolate (source animal id): 170	≤ 1
isolate (source animal id): 171	≤ 1
isolate (source animal id): 172	≤ 1
isolate (source animal id): 173	≤ 1
isolate (source animal id): 174	≤ 1
isolate (source animal id): 175	≤ 1
isolate (source animal id): 176	≤ 1
isolate (source animal id): 177	≤ 1
isolate (source animal id): 178	≤ 1
isolate (source animal id): 179	≤ 1
isolate (source animal id): 180	4 (≈ 8.38 µM)
isolate (source animal id): 181	≤ 1
isolate (source animal id): 182	≤ 1
isolate (source animal id): 183	≤ 1
isolate (source animal id): 184	≤ 1
isolate (source animal id): 185	≤ 1
isolate (source animal id): 186	≤ 1
isolate (source animal id): 187	8 (≈ 16.8 µM)
isolate (source animal id): 188	≤ 1

NC[C@@H]1O[C@H](O[C@H]2[C@@H](O)[C@H](O[C@@H]3[C@@H](O)[C@H](N)C[C@H](N)[C@H]3O[C@H]3O[C@H](CN)[C@@H](O)[C@H](O)[C@H]3N)O[C@@H]2CO)[C@H](N)[C@@H](O)[C@@H]1O [Neomycin]
Conditions	minimum inhibitory concentration [µg/mL]
isolate (source animal id): 8	32 (≈ 52.1 µM)
isolate (source animal id): 9	≤ 4
isolate (source animal id): 10	> 32
isolate (source animal id): 11	≤ 4
isolate (source animal id): 12	≤ 4
isolate (source animal id): 13	≤ 4
isolate (source animal id): 14	32 (≈ 52.1 µM)
isolate (source animal id): 15	≤ 4
isolate (source animal id): 16	≤ 4
isolate (source animal id): 98	≤ 4
isolate (source animal id): 99	≤ 4
isolate (source animal id): 100	≤ 4
isolate (source animal id): 101	≤ 4
isolate (source animal id): 102	≤ 4
isolate (source animal id): 103	≤ 4
isolate (source animal id): 104	≤ 4
isolate (source animal id): 105	≤ 4
isolate (source animal id): 106	> 32
isolate (source animal id): 107	≤ 4
isolate (source animal id): 108	≤ 4
isolate (source animal id): 109	≤ 4
isolate (source animal id): 110	≤ 4
isolate (source animal id): 111	> 32
isolate (source animal id): 112	> 32
isolate (source animal id): 113	≤ 4
isolate (source animal id): 114	≤ 4
isolate (source animal id): 115	> 32
isolate (source animal id): 116	≤ 4
isolate (source animal id): 117	> 32
isolate (source animal id): 118	≤ 4
isolate (source animal id): 119	≤ 4
isolate (source animal id): 120	> 32
isolate (source animal id): 121	≤ 4
isolate (source animal id): 122	> 32
isolate (source animal id): 123	≤ 4
isolate (source animal id): 124	≤ 4
isolate (source animal id): 125	≤ 4
isolate (source animal id): 126	≤ 4
isolate (source animal id): 127	≤ 4
isolate (source animal id): 128	≤ 4
isolate (source animal id): 129	≤ 4
isolate (source animal id): 130	≤ 4
isolate (source animal id): 131	≤ 4
isolate (source animal id): 132	> 32
isolate (source animal id): 133	≤ 4
isolate (source animal id): 134	≤ 4
isolate (source animal id): 135	≤ 4
isolate (source animal id): 136	≤ 4
isolate (source animal id): 137	> 32
isolate (source animal id): 138	≤ 4
isolate (source animal id): 139	≤ 4
isolate (source animal id): 140	≤ 4
isolate (source animal id): 141	> 32
isolate (source animal id): 142	≤ 4
isolate (source animal id): 143	> 32
isolate (source animal id): 144	≤ 4
isolate (source animal id): 145	> 32
isolate (source animal id): 146	≤ 4
isolate (source animal id): 147	> 32
isolate (source animal id): 148	≤ 4
isolate (source animal id): 149	≤ 4
isolate (source animal id): 150	> 32
isolate (source animal id): 151	≤ 4
isolate (source animal id): 152	≤ 4
isolate (source animal id): 153	≤ 4
isolate (source animal id): 154	≤ 4
isolate (source animal id): 155	32 (≈ 52.1 µM)
isolate (source animal id): 156	> 32
isolate (source animal id): 157	≤ 4
isolate (source animal id): 158	> 32
isolate (source animal id): 159	≤ 4
isolate (source animal id): 160	> 32
isolate (source animal id): 161	> 32
isolate (source animal id): 162	≤ 4
isolate (source animal id): 163	≤ 4
isolate (source animal id): 164	≤ 4
isolate (source animal id): 165	32 (≈ 52.1 µM)
isolate (source animal id): 166	≤ 4
isolate (source animal id): 167	≤ 4
isolate (source animal id): 168	≤ 4
isolate (source animal id): 169	≤ 4
isolate (source animal id): 170	≤ 4
isolate (source animal id): 171	≤ 4
isolate (source animal id): 172	≤ 4
isolate (source animal id): 173	≤ 4
isolate (source animal id): 174	≤ 4
isolate (source animal id): 175	≤ 4
isolate (source animal id): 176	≤ 4
isolate (source animal id): 177	≤ 4
isolate (source animal id): 178	≤ 4
isolate (source animal id): 179	≤ 4
isolate (source animal id): 180	≤ 4
isolate (source animal id): 181	32 (≈ 52.1 µM)
isolate (source animal id): 182	≤ 4
isolate (source animal id): 183	≤ 4
isolate (source animal id): 184	≤ 4
isolate (source animal id): 185	≤ 4
isolate (source animal id): 186	≤ 4
isolate (source animal id): 187	32 (≈ 52.1 µM)
isolate (source animal id): 188	≤ 4
